Reference: patent US20190375708A1 (VenatoRx Pharmaceuticals, Inc., priority 2018, published 2019)
pEC50: −log10 of the molar value.

What was measured:
[1] = test system: HBV replication in HepAD38 cells; experiment: Anti-HBV replication assay in HepAD38 cells (QPCR of extracellular HBV DNA); assay type: cell-based, HBV (genotype D, serotype ayw); details: Hepatitis B virus, 168 h, 7 days incubation, extracellular HBV DNA by QPCR, read-out: Anti-HBV EC50
Method in brief: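 Read-out is QPCR of HBV DNA released into culture supernatant, converted to percent of vehicle control and fitted to give EC50. Cells were HepAD38 induced by tetracycline removal and dosed […] for 7 days.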

[2] = In vitro cytotoxicity assay (MTT cell viability) in HepG2 cells; assay type: cell-based, human; details: human
Method in brief: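 Using MTT conversion as the viability measure, HepG2 cells were incubated with compounds for 7 days (30 μM to 1.0 nM). Absorbance at 492 nm was normalized to vehicle and fitted to give CC50.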

Row | Structure (SMILES) | pEC50 [1] | CC50 at 7 days [2] [µM]
1 | Cc1cc(NC(=O)c2c(C)c(C(=O)C(=O)NC(C)(C)C(=O)OC(C)(C)C)n(C)c2C)ccc1F [Example 22, tert-butyl 2-(2-(4-((4-fluoro-3-methylphenyl)carbamoyl)-1,3,5-trimethyl-1H-pyrrol-2-yl)-2-oxoacetamido)-2-methylpropanoate] | > 7.30 | > 30
2 | O=C(NC1(CO)CCC1)C(=O)c1c(Cl)c(C(=O)Nc2ccc(F)c(Cl)c2)c2n1CCC2 [Example 565, 6-chloro-N-(3-chloro-4-fluorophenyl)-5-(2-((1-(hydroxymethyl)cyclobutyl)amino)-2-oxoacetyl)-2,3-dihydro-1H-pyrrolizine-7-carboxamide] | > 7.30 | 5 to 30
3 | Cc1cc(NC(=O)c2cc(C(=O)C(=O)NC3(CO)CC(F)(F)C3)n3c2CCCC3)ccc1F [Example 432, 3-(2-((3,3-difluoro-1-(hydroxymethyl)cyclobutyl)amino)-2-oxoacetyl)-N-(4-fluoro-3-methylphenyl)-5,6,7,8-tetrahydroindolizine-1-carboxamide] | 6.30 to 7.30 | > 30
4 | Cc1cc(NC(=O)c2c(C)c(C(=O)C(=O)NC(C)(C)C)n(C)c2C)ccc1F [Example 2, 5-(2-(tert-butylamino)-2-oxoacetyl)-N-(4-fluoro-3-methylphenyl)-1,2,4-trimethyl-1H-pyrrole-3-carboxamide] | > 7.30 | > 30
5 | Cc1cc(NC(=O)c2c(Cl)c(C(=O)C(=O)N[C@@H](C)C(F)(F)F)n3c2CCC3)cnc1F [Example 574, (S)-6-chloro-N-(6-ffluoro-5-methylpyridin-3-yl)-5-(2-oxo-2-((1,1,1-trifluoropropan-2-yl)amino)acetyl)-2,3-dihydro-1H-pyrroliine-7-carboxamide] | 6.00 to 6.30 | 5 to 30
6 | Cc1cc(NC(=O)c2c(Cl)c(C(=O)C(=O)NCC(C)(C)O)n(C)c2C)ccc1F [Example 364, 4-chloro-N-(4-fluoro-3-methylphenyl)-5-(2-((2-hydroxy-2-methylpropyl)amino)-2-oxoacetyl)-1,2-dimethyl-1H-pyrrole-3-carboxamide] | > 7.30 | 5 to 30
7 | Cc1cc(NC(=O)c2c(C)c(C(=O)C(=O)NC3CCN(c4cnccn4)CC3)n(C)c2C)ccc1F [Example 659, N-(4-fluoro-3-methylphenyl)-1,2,4-trimethyl-5-(2-oxo-2-((1-(pyrazin-2-yl)piperidin-4-yl)amino)acetyl)-1H-pyrrole-3-carboxamide] | > 7.30 | > 30
8 | Cc1cc(NC(=O)c2c(Cl)c(C(=O)C(=O)NC3(CO)CC(F)(F)C3)n3c2CCC3)cnc1F [Example 579, 6-chloro-5-(2-((3,3-difluoro-1-(hydroxymethyl)cyclobutyl)amino)-2-oxoacetyl)-N-(6-fluoro-5-methylpyridin-3-yl)-2,3-dihydro-1H-pyrrolizine-7-carboxamide] | 6.00 to 6.30 | > 30
9 | Cc1cc(NC(=O)c2c(C)c(C(=O)C(=O)NC3CCOCC3(C)C)n(C)c2C)ccc1F (stereo not shown) [Example 281] | > 7.30 | 5 to 30
10 | Cc1c(C(=O)Nc2ccc(F)nc2)c(C)n(C)c1C(=O)C(=O)NC(C)(C)C(F)(F)F [Example 121, N-(6-fluoropyridin-3-yl)-1,2,4-trimethyl-5-(2-oxo-2-((1,1,1-trifluoro-2-methylpropan-2-yl)amino)acetyl)-1H-pyrrole-3-carboxamide] | > 7.30 | > 30
11 | O=C(N[C@H]1COC[C@@H]1O)C(=O)c1c(Cl)c(C(=O)Nc2ccc(F)c(F)c2)c2n1CCCC2 [Example 518, 2-chloro-N-(3,4-difluorophenyl)-3-(2-(((3S,4R)-4-hydroxytetrahydrofuran-3-yl)amino)-2-oxoacetyl)-5,6,7,8-tetrahdyroindolinzie-1-carboxamide] | 6.30 to 7.30 | 5 to 30
12 | Cc1cc(NC(=O)c2c(C)c(C(=O)C(=O)NC3CCSCC3)n(C)c2C)cnc1F [Example 191, N-(6-fluoro-5-methylpyridin-3-yl)-1,2,4-trimethyl-5-(2-oxo-2-((tetrahydro-2H-thiopyran-4-yl)amino)acetyl)-1H-pyrrole-3-carboxamide] | > 7.30 | > 30
13 | Cc1cc(NC(=O)c2c(C)c(C(=O)C(=O)N[C@@H](C(=O)NCCO)C(C)(C)C)n(C)c2C)ccc1F [Example 86, (R)-N-(4-fluoro-3-methylphenyl)-5-(2-((1-((2-hydroxyethyl)amino)-3,3-dimethyl-1-oxobutan-2-yl)amino)-2-oxoacteyl)-1,2,4-trimethyl-1H-pyrrole-3-carboxamide] | > 7.30 | 5 to 30
14 | Cc1cc(NC(=O)c2c(C)c(C(=O)C(=O)NC(C)(C)CO)n3c2CCCC3)cnc1F [Example 478, N-(6-fluoro-5-methylpyridin-3-yl)-3-(2-((1-hydroxy-2-methylpropan-2-yl)amino)-2-oxoacetyl)-2-methyl-5,6,7,8-tetrahydroindoliizine-1-carboxamide] | < 6.00 | > 30
15 | Cc1cc(NC(=O)c2c(C)c(C(=O)C(=O)N[C@H]3CC[C@@H](O)CC3)n(CCF)c2C)ccc1F [Example 210, N-(4-fluoro-3-methylphenyl)-1-(2-fluoroethyl)-5-(2-(((1s,4s)-4-hydroxycyclohexyl)amino)-2-oxoacetyl)-2,4-dimethyl-1H-pyrrole-3-carboxamide] | > 7.30 | > 30
16 | COC(=O)[C@@H](NC(=O)C(=O)c1c(C)c(C(=O)Nc2ccc(F)c(C)c2)c(C)n1C)[C@@H](C)O [Example 27, methyl (2-(4-((4-fluoro-3-methylphenyl)carbamoyl)-1,3,5-trimethyl-1H-pyrrol-2-yl)-2-oxoacetyl)-L-threoninate] | < 6.00 | > 30
17 | Cc1cc(NC(=O)c2c(C)c(C(=O)C(=O)NCC(C)(C)O)n3c2CCCC3)cnc1F [Example 477, N-(6-fluoro-5-methylpyridin-3-yl)-3-(2-((2-hydroxy-2-methylpropyl)amino)-2-oxoacetyl)-2-methyl-5,6,7,8-tetrahydroindolizine-1-carboxamide] | < 6.00 | > 30
18 | Cc1cc(NC(=O)c2c(C)c(C(=O)C(=O)NCCN3C(=O)CSC3=O)n(C)c2C)ccc1F [Example 649, 5-(2-((2-(2,4-dioxothiazolidin-3-yl)ethyl)amino)-2-oxoacetyl)-N-(4-fluoro-3-methylphenyl)-1,2,4-trimethyl-1H-pyrrole-3-carboxamide] | > 7.30 | > 30
19 | Cc1noc([C@H](C)NC(=O)C(=O)c2c(Cl)c(C(=O)Nc3ccc(F)c(F)c3)c3n2CCCC3)n1 [Example 516, (S)-2-chloro-N-(3,4-difluorophenyl)-3-(2-((1-(3-methyl-1,2,4-oxadiazol-5-yl)ethyl)amino)-2-oxoacetyl)-5,6,7,8-tetrahydroindolizine--1 carboxamide] | 6.30 to 7.30 | > 30
20 | CCn1c(C)c(C(=O)Nc2ccc(F)c(C)c2)c(C)c1C(=O)C(=O)NC(C)(C)CO [Example 98, 1-ethyl-N-(4-fluoro-3-methylphenyl)-5-(2-((1-hydroxy-2-methylpropan-2-yl)amino)-2-oxoacetyl)-2,4-dimethyl-1H-pyrrole-3-carboxamide] | > 7.30 | > 30
21 | Cc1cc(NC(=O)c2c(C)c(C(=O)C(=O)N[C@H]3c4ccccc4C[C@H]3O)n(C)c2C)ccc1F [Example 260, N-(4-fluoro-3-methylphenyl)-5-(2-(((1S,2R)-2-hydroxy-2,3-dihydro-1H-inden-1-yl)amino)-2-oxoacetyl)-1,2,4-trimethyl-1H-pyrrole-3-carboxamide] | > 7.30 | 5 to 30
22 | Cc1c(C(=O)Nc2ccc(F)cc2)c(C)n(C)c1C(=O)C(=O)N[C@H](C)C(F)(F)F [Example 725, (R)-N-(4-fluorophenyl)-1,2,4-trimethyl-5-(2-oxo-2-((1,1,1-trifluoropropan-2-yl)amino)acetyl)-1H-pyrrole-3-carboxamide] | > 7.30 | > 30
23 | Cc1noc([C@H](C)NC(=O)C(=O)c2c(Cl)c(C(=O)Nc3ccc(F)c(C)c3)c3n2CCCC3)n1 [Example 494, (S)-2-chloro-N-(4-fluoro-3-methylphenyl)-3-(2-((1-(3-methyl-1,2,4-oxadiazol-5-yl)ethyl)amino)-2-oxoacetyl)-5,6,7,8-tetrahydroindolizinee-1-carboxamide] | > 7.30 | 5 to 30
24 | Cc1cc(NC(=O)c2c(Cl)c(C(=O)C(=O)N[C@H]3COC[C@@H]3O)n3c2CCC3)ccc1F [Example 572, 6-chloro-N-(4-fluoro-3-methylphenyl)-5-(2-(((3S,4R)-4-hydroxytetrahydrofuran-3-yl)amino)-2-oxoacetyl)-2,3-dihydro-1H-pyrrolizine-7-carboxamide] | > 7.30 | > 30
25 | Cc1cc(NC(=O)c2c(C)c(C(=O)C(=O)N[C@H]3CC[C@@H](O)CC3)n(C)c2C)cnc1F [Example 174, N-(6-fluoro-5-methylpyridin-3-yl)-5-(2-(((1s,4s)-4-hydroxycyclohexyl)amino)-2-oxoacetyl)-1,2,4-trimethyl-1H-pyrrole-3-carboxamide] | 6.30 to 7.30 | > 30
26 | Cc1cc(NC(=O)c2c(C)c(C(=O)C(=O)NCC(C)(C)O)n(C)c2Cl)ccc1F [Example 388, 2-chloro-N-(4-fluoro-3-methylphenyl)-5-(2-((2-hydroxy-2-methylpropyl)amino)-2-oxoacetyl)-1,4-dimethyl-1H-pyrrole-3-carboxamide] | < 6.00 | 5 to 30
